Results on 23 compounds are retold here after publication PMC10870767, “Extraction, Purification, and Characterization of Olive (Olea europaea L., cv. Chemlal) Polyphenol Oxidase” (Journal of Agricultural and Food Chemistry, 2024).

Where “and” joins values, the source holds several entries; their conditions need not be identical. Identical values can stand only once. Like-named read-outs stand apart in the source and are kept apart here.

For one assay, the system named is apricot PPO. The settings on record: cited from earlier work; for residual activity: 10 mM inhibitor.
The next assay relates to mango PPO. The settings on record: cited from earlier work; for residual activity: 10 mM inhibitor.
In assay [1] the target is T1, olive polyphenol oxidase (OePPO) (Olea europaea, UniProt A0A8S0TLT4). Kind of assay: Enzyme kinetics and substrate specificity of purified OePPO. Conditions: for kcat: substrate of purified OePPO, 50 mM sodium phosphate buffer pH 7.5, 5 mM SDS, 25 °C. The format is biochemical, Olea europaea L., cv. Chemlal. How it is done: (§1) OePPO activity measurements were carried out spectrophotometrically at 25 °C using a 96-well microplate reader (Infinite M200, Tecan). The assay mixture, with a volume of 200 μL, was monitored for the increase in absorbance at 410 nm as the enzyme converted catechol, starting from ∼25 s after mixing (time required for pipetting and initiating the microplate reader) and continuing until the reaction curve reached a plateau phase (after ∼15 min). The standard reaction mixture consisted of 0.5 μg of enzyme and 10 mM catechol in 50 mM sodium phosphate buffer (pH 7.5) along with the optimal concentration of SDS (5 mM) as determined. […] OePPO activity was assessed by calculating the slope of the initial linear segment of the experimental curves, where the absorbance was plotted against time. The activity was expressed in U/mg, with one unit of enzymatic activity (U) defined as the amount of enzyme that catalyzed the formation of 1 μmol of quinones per minute (1 U = 1 μmol/min). All experiments were conducted in triplicate, and the protein concentrations in the enzyme solutions were determined using the Bradford method[15] with bovine serum albumin as a standard.
T1 sequence (A0A8S0TLT4 entry or part of it): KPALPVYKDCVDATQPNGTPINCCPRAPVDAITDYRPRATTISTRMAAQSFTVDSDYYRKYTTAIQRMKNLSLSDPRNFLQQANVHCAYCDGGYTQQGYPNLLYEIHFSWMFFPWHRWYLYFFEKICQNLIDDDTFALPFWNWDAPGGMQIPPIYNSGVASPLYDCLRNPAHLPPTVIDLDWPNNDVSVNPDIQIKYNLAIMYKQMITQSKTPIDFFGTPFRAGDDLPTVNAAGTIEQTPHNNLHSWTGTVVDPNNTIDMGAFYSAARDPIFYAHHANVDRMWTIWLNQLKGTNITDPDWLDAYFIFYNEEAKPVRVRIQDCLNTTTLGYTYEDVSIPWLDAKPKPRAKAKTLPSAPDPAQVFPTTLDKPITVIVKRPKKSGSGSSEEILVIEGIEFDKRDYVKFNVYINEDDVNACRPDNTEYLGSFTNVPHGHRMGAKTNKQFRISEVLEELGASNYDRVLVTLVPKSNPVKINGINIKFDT

The next assay concerns blueberry PPO. On the set-up: method as in PMID 27719900. The settings on record: cited from earlier work.
For assay [2], the target named is T1, olive polyphenol oxidase (OePPO). Nature of the assay: Effect of inhibitors on OePPO activity. The format is biochemical, Olea europaea L., cv. Chemlal. The settings on record: 10 mM catechol; for IC100: read-out: concentration for complete suppression/inhibition of OePPO activity. How it is done: as §1
The optimum concentration range for each inhibitor was established through preliminary experiments (data not shown). OePPO activity was measured using the same assay conditions previously described, and the results were expressed as the percentage of residual activity relative to the control mixture (100%) without inhibitors. The half inhibitory concentration (IC50) was determined for each inhibitor using nonlinear regression.

A further assay concerns OePPO1. Nature of the assay: Effect of metal ions on OePPO1 activity. In kind it is biochemical, Olea europaea L., cv. Chemlal.
For assay [3], the target named is T1, olive polyphenol oxidase (OePPO). Kind of assay: Effect of SDS on OePPO activity (activation of latent enzyme). The format is biochemical, Olea europaea L., cv. Chemlal. How it is done:
as §1
The effect of different concentrations of SDS (0–100 mM) on OePPO activity was investigated.

The subject of a further assay is banana PPO. On the set-up: method as in doi:10.1021/jf980473d. The settings on record: cited from earlier work.
Setting [4] is: 1 mM metal salt, 50 mM sodium citrate buffer, 5 mM SDS, control without metal ions = 100%.
Setting [5] is: 5 mM metal salt, 50 mM sodium citrate buffer, 5 mM SDS, control without metal ions = 100%.
Where [6] appears, read: 10 mM metal salt, 50 mM sodium citrate buffer, 5 mM SDS, control without metal ions = 100%.
The mark [7] stands for this setting: 100 mM metal salt, 50 mM sodium citrate buffer, 5 mM SDS, control without metal ions = 100%.

The term residual activity denotes the activity still measured, relative to the control. Consider `O=C(O)CCC(=O)O` [succinic acid], for which the values for the residual activity result with apricot PPO and in the assay with mango PPO were “exceeding 80%” and over 60%, respectively.
`NCCc1ccc(O)c(O)c1` [dopamine]: the kcat in assay [1] is listed as 13.98 ± 0.07 s^–1.
With `N[C@@H](CS)C(=O)O` [L-cysteine], the “concentration with complete inhibitory effect” value with apricot PPO, with mango PPO and with blueberry PPO was “around 1 mM” in each case.
For `O=C1O[C@H]([C@@H](O)CO)C(O)=C1O` [ascorbic acid], in assay [2] (pH 7.5, 5 mM SDS), the IC100 came out at 1000 µM. Also, the “concentration with complete inhibitory effect” value in the assay on apricot PPO, in the assay on mango PPO and in the assay with blueberry PPO was “around 1 mM” in each case.
`NC(=S)Nc1ccccc1` [N-phenylthiourea]: the “concentration that completely inhibited enzymatic activity” value in assay [2] (pH 7.5, 5 mM SDS) turned out to be 50 µM.
Regarding `[Cl-].[Na+]` [NaCl], the relative activity in the assay with OePPO1 was 101 ± 3.1% and 99 ± 2.3% and 103 ± 2.8% and 88 ± 5.4%.
Take `OCCc1ccc(O)cc1` [tyrosol]: the “processed faster than tyramine” value in assay [1] (monophenolase activity, compared with tyramine) is over 10 times.
For the compound `[Cl-].[K+]` [KCl], the relative activity with OePPO1 (setting [4]) is recorded as 98 ± 3.8%; in the assay on OePPO1 (setting [5]) it was 98 ± 1.4%; with OePPO1 (setting [6]) it was 96 ± 2.1%; with OePPO1 (setting [7]) it was 64 ± 2.8%.
`O=c1cc(CO)occ1O` [Kojic acid, kojic acid]: the “inhibition of enzymatic browning” value in the assay on mango PPO (10 mM) was “effectively inhibiting enzymatic browning”.
Consider `O=C(O)CC(O)(CC(=O)O)C(=O)O` [citric acid], for which the values for the residual activity entry with apricot PPO and in the assay on mango PPO were “exceeding 80%” and over 60%, respectively.
With `[Cl][Cr]([Cl])[Cl]` [CrCl3], the relative activity in the assay on OePPO1 (setting [4]) is 80 ± 2.8%; with OePPO1 (1 mM metal salt, 50 mM sodium citrate buffer, 5 mM SDS, control without metal ions = 100%, listed as Cr^3+) it was 80%; in the assay on OePPO1 (setting [5]), 63 ± 1.6%; in the assay with OePPO1 (setting [6]) it was 0.0 ± 0.00%; in the assay on OePPO1 (10 mM metal salt, 50 mM sodium citrate buffer, 5 mM SDS, control without metal ions = 100%, listed as Cr^3+) it was “complete suppression”; in the assay with OePPO1 (setting [7]), 0.0 ± 0.00%.
On to `[Cl-].[Cl-].[Mg+2]` [MgCl2], for which the relative activity with OePPO1 (setting [4]) turned out to be 100 ± 2.7%; in the assay with OePPO1 (setting [5]), 97 ± 1.4%; in the assay on OePPO1 (setting [6]), 95 ± 1.8%; in the assay on OePPO1 (setting [7]), 72 ± 3.4%.
For `O=S(O)S(=O)(=O)O` [sodium metabisulfite], the IC100 in assay [2] (pH 7.5, 5 mM SDS) came out at 1000 µM. Further, the “concentration with complete inhibitory effect” value in the assay on apricot PPO, in the assay on mango PPO and in the assay with blueberry PPO was “around 1 mM” each time.
As to `O=S(=O)([O-])[O-].[Ni+2]` [NiSO4], the relative activity worked out at 103 ± 2.3% with OePPO1 (setting [4]), 101.3 ± 0.57% in the assay with OePPO1 (setting [5]), 92 ± 1.7% in the assay on OePPO1 (setting [6]) and 88 ± 4.3% in the assay with OePPO1 (setting [7]).
On to `[Cl][Al]([Cl])[Cl]` [AlCl3], for which the relative activity is 98 ± 1.9% with OePPO1 (setting [4]), 90 ± 1.2% in the assay on OePPO1 (setting [5]), 82 ± 2.7% with OePPO1 (setting [6]) and 0.0 ± 0.00% with OePPO1 (setting [7]).
Turning to `[Cl-].[Cl-].[Zn+2]` [ZnCl2], the relative activity in the assay on OePPO1 (setting [4]) was 99 ± 1.2%; in the assay with OePPO1 (setting [5]), 108.9 ± 0.92%; in the assay with OePPO1 (5 mM metal salt, 50 mM sodium citrate buffer, 5 mM SDS, control without metal ions = 100%, listed as Zn^2+), 109%; with OePPO1 (setting [6]) it was 107.3 ± 0.54%; in the assay on OePPO1 (setting [7]), 15 ± 5.1%; with OePPO1 (100 mM metal salt, 50 mM sodium citrate buffer, 5 mM SDS, control without metal ions = 100%, listed as Zn^2+), “drastically reduced”.
As for `O=S(=O)([O-])[O-].[Cu+2]` [CuSO4], the relative activity in the assay with OePPO1 (setting [4]) is given as 106 ± 4.3%; with OePPO1 (setting [5]), 112 ± 1.9%; with OePPO1 (5 mM metal salt, 50 mM sodium citrate buffer, 5 mM SDS, control without metal ions = 100%, listed as Cu^2+) it was 112%; in the assay with OePPO1 (setting [6]), 110 ± 3.9%; in the assay on OePPO1 (setting [7]), 37 ± 2.6%; in the assay on OePPO1 (100 mM metal salt, 50 mM sodium citrate buffer, 5 mM SDS, control without metal ions = 100%, listed as Cu^2+), “drastically reduced”.
For `[Cl][Fe][Cl]` [FeCl2], the relative activity in the assay with OePPO1 (setting [4]) stood at 87 ± 2.3%; with OePPO1 (1 mM metal salt, 50 mM sodium citrate buffer, 5 mM SDS, control without metal ions = 100%, listed as Fe^2+) it was 87%; in the assay on OePPO1 (setting [5]), 74 ± 1.7%; in the assay on OePPO1 (setting [6]) it was 56 ± 2.0%; in the assay on OePPO1 (setting [7]), 22 ± 6.6%.
Turning to `CCCCCCCCCCCCOS(=O)(=O)[O-].[Na+]` [SDS, sodium lauryl sulfate], the “increase of OePPO activity versus absence of SDS” value in assay [3] (5 mM SDS, phosphate buffer pH 7.5) is about 10 fold. Besides, in assay [3] (100 mM SDS, phosphate buffer pH 7.5), the “OePPO activity compared to the absence of SDS” value was “three times the activity”. For the same compound, the “optimal SDS concentration for full activation of latent OePPO” value in assay [3] (phosphate buffer pH 7.5, catechol) stood at 5 mM. Further, the “SDS concentration for full activation of latent PPO” value with apricot PPO and with banana PPO was 2 mM in each case. Besides, the “SDS concentration necessary to achieve full activity” value with mango PPO is given as 6.93 mM.
Consider `[Ca+2].[Cl-].[Cl-]` [CaCl2], for which the relative activity in the assay on OePPO1 (setting [4]) amounted to 103 ± 2.0%; in the assay on OePPO1 (setting [5]) it was 96 ± 2.8%; in the assay on OePPO1 (setting [6]) it was 93 ± 2.9%; with OePPO1 (setting [7]) it was 66 ± 4.1%.
Broadly, the IC50 is the concentration needed to halve the response being measured. Lower therefore signals greater potency. `N[C@@H](CCC(=O)N[C@@H](CS)C(=O)NCC(=O)O)C(=O)O` [glutathione, reduced, reduced glutathione]: the IC50 in assay [2] (50 mM sodium phosphate buffer pH 7.5, 5 mM SDS, 25 °C, nonlinear regression) amounted to 62 ± 3 µM. The “concentration for complete suppression/inhibition of OePPO activity” value in assay [2] (pH 7.5, 5 mM SDS) is on record as 1 mM. The “concentration with complete inhibitory effect” value in the assay on apricot PPO, with mango PPO and in the assay with blueberry PPO was “around 1 mM” throughout.
Take `NCCc1ccc(O)cc1` [tyramine]: the kcat in assay [1] was 0.093 ± 0.005 s^–1.
Consider `[Cl][Mn][Cl]` [MnCl2], for which the relative activity is recorded as 99 ± 2.1% in the assay with OePPO1 (setting [4]), 92.1 ± 0.84% in the assay with OePPO1 (setting [5]), 60 ± 3.2% with OePPO1 (setting [6]) and 0.0 ± 0.00% with OePPO1 (setting [7]).
